In ChEMBL document CHEMBL4765331, “Amides of pyrrole- and thiophene-fused anthraquinone derivatives: A role of the heterocyclic core in antitumor properties” (Eur J Med Chem, 2020):
Active and inactive are the calls of the source. The calls are words filed in the database; no cut-off is given here.

What was measured:
[1] = Selectivity index, ratio of IC50 for human TERT-RPE1 cells to IC50 for human HCT-116 cells; type: toxicity; conditions: TERT-RPE1 cells and HCT-116 cells, read-out: Ratio IC50
HCT-116 [2] = test: Antiproliferative activity against human HCT-116 cells assessed as inhibition of cell proliferation measured after 72 hrs by MTT assay; type: functional, cell-based; conditions: HCT-116, 72 h
K562 [3] = test: Induction of apoptosis in human K562 cells assessed as viable cells at 3.2 uM measured after 48 hrs by Annexin V-APC/PI staining based flow cytometry assay (reference value: 85.9%); type: functional; conditions: read-out: Activity
[4] = Resistance index, ratio of IC50 for human P-gp-positive/Doxorubicin-resistant K562/4 cells to IC50 for human K562 cells; type: functional
[5] = Drug uptake in P-gp-positive/doxorubicin-resistant human K562/4 cells; type: ADME
K562 [6] = test: Induction of apoptosis in human K562 cells assessed as necrotic cells at 3.2 uM measured after 48 hrs by Annexin V-APC/PI staining based flow cytometry assay (reference value: 3.9%); type: functional
Calf thymus DNA [7] = test: Binding affinity to calf thymus DNA assessed as stoichiometry ratio of compound-DNA complex formation by scatchard plot analysis; conditions: Bos taurus
[8] = Drug uptake in mouse NIH3T3 cells assessed as compound localization in mitochondria at 1 uM measured after 15 mins by Mitotracker Green FM dye based laser scanning microscope; type: ADME; conditions: nih3t3, 0.25 h
K562 [9] = test: Antiproliferative activity against human K562 cells assessed as inhibition of cell proliferation measured after 72 hrs by MTT assay; type: functional, cell-based; conditions: K562, 72 h
K562 [10] = test: Induction of apoptosis in human K562 cells assessed as late apoptotic cells at 3.2 uM measured after 24 hrs by Annexin V-APC/PI staining based flow cytometry assay (reference value: […]); type: functional
[11] = Selectivity index, ratio of IC50 for human TERT-RPE1 cells to IC50 for human K562 cells; type: toxicity; conditions: TERT-RPE1 cells and K562 cells, read-out: Ratio IC50
K562 [12] = test: Induction of apoptosis in human K562 cells assessed as early apoptotic cells at 3.2 uM measured after 48 hrs by Annexin V-APC/PI staining based flow cytometry assay (reference value: 3.4%); type: functional
K562 [13] = test: Induction of oxidative stress in human K562 cells assessed as increase in intracellular ROS generation at 3.2 uM measured after 40 mins by Deep Red dye based flow cytometry method; type: functional, cell-based
K562 [14] = test: Induction of apoptosis in human K562 cells assessed as necrotic cells at 3.2 uM measured after 24 hrs by Annexin V-APC/PI staining based flow cytometry assay (reference value: 3.9%); type: functional
[15] = Selectivity index, ratio of IC50 for human TERT-RPE1 cells to IC50 for human HL-60 cells; type: toxicity; conditions: TERT-RPE1 cells and HL-60 cells, read-out: Ratio IC50
K562 [16] = test: Induction of apoptosis in human K562 cells assessed as late apoptotic cells at 3.2 uM measured after 48 hrs by Annexin V-APC/PI staining based flow cytometry assay (reference value: […]); type: functional
Calf thymus DNA [17] = test: Binding affinity to calf thymus DNA assessed as binding constant by scatchard plot analysis; conditions: Bos taurus
[18] = target: T1, DNA topoisomerase 1 (Homo sapiens) (UniProt P11387); test: Inhibition of human topoisomerase 1-mediated relaxation of supercoiled plasmid using pBR322 plasmid as substrate at 40 uM measured after 30 mins by ethidium bromide dye based agarose gel electrophoresis method
T1 sequence (whole entry): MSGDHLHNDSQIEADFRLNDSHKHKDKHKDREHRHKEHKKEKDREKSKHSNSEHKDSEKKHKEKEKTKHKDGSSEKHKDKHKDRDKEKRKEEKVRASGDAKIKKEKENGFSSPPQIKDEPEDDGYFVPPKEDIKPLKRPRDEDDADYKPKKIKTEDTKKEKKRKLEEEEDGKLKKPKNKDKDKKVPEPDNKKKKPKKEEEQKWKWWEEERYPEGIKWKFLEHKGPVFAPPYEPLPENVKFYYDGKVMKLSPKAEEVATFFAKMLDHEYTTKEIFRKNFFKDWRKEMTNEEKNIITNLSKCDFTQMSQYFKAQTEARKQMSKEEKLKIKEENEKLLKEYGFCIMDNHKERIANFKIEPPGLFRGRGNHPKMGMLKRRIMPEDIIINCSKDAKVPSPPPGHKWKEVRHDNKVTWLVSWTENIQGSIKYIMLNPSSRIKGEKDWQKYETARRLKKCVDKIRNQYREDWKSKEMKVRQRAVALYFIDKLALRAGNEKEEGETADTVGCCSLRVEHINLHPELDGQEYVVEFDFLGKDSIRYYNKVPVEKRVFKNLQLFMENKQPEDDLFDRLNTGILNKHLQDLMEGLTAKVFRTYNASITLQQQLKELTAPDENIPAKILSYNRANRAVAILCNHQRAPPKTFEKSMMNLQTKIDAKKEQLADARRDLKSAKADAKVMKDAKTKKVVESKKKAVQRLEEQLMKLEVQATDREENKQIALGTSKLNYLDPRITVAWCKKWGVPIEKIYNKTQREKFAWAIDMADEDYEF

CAPAN-1 = test: Antiproliferative activity against human CAPAN-1 cells assessed as inhibition of cell proliferation measured after 72 hrs by MTT assay; type: functional, cell-based; conditions: CAPAN-1, 72 h
Calf thymus DNA [19] = test: Binding affinity to calf thymus double stranded DNA at 10 uM measured after 5 mins by flourescence spectroscopy method; conditions: Bos taurus
HCT-116 [20] = test: Antiproliferative activity against human HCT-116 cells with inactivated p53 gene assessed as inhibition of cell proliferation measured after 72 hrs by MTT assay; type: functional, cell-based; conditions: HCT-116, 72 h
[21] = Antiproliferative activity against P-gp-positive/doxorubicin-resistant human K562/4 cells assessed as inhibition of cell proliferation measured after 72 hrs by MTT assay; type: functional; conditions: K562/4, 72 h
NCI-H460 = test: Antiproliferative activity against human NCI-H460 cells assessed as inhibition of cell proliferation measured after 72 hrs by MTT assay; type: functional, cell-based; conditions: NCI-H460, 72 h
K562 [22] = test: Induction of cell cycle arrest in human K562 cells assessed as accumulation at G2/M phase at 2XIC50 measured after 48 hrs by propidium iodide/RNase staining based flow cytometry; type: functional
TERT-RPE1 = test: Cytotoxicity against human TERT-RPE1 cells assessed as inhibition of cell proliferation measured after 72 hrs by MTT assay; type: cell-based; conditions: RPE-1, 72 h
[23] = Drug uptake in mouse NIH3T3 cells assessed as compound localization in cytoplasm at 1 uM measured after 15 mins by laser scanning microscope; type: ADME, subcellular; conditions: nih3t3, 0.25 h
K562 [24] = test: Induction of apoptosis in human K562 cells assessed as early apoptotic cells at 3.2 uM measured after 24 hrs by Annexin V-APC/PI staining based flow cytometry assay (reference value: 3.4%); type: functional
Calf thymus DNA [25] = test: Binding affinity to calf thymus DNA assessed as DNA intercalation by measuring decrease of negative DNA band at 245 nm at 50 uM by circular dichroism spectral analysis; type: tissue-based; conditions: Bos taurus
[26] = Selectivity index, ratio of IC50 for human TERT-RPE1 cells to IC50 for human NCI-H460 cells; type: toxicity; conditions: TERT-RPE1 cells and NCI-H460 cells, read-out: Ratio IC50
[27] = Selectivity index, ratio of IC50 for human TERT-RPE1 cells to IC50 for human CAPAN-1 cells
K562 [28] = test: Induction of cell cycle arrest in human K562 cells assessed as accumulation at G2/M phase at 2XIC50 measured after 24 hrs by propidium iodide/RNase staining based flow cytometry; type: functional
HL-60 = test: Antiproliferative activity against human HL-60 cells assessed as inhibition of cell proliferation measured after 72 hrs by MTT assay; type: functional, cell-based; conditions: HL-60, 72 h
[29] = Drug uptake in human K562i/S9 cells harboring exogenously expressed MDR1/Pgp; type: ADME, cell-based
K562 [30] = test: Induction of cell cycle arrest in human K562 cells assessed as accumulation at subG1 phase at 2XIC50 measured after 24 hrs by propidium iodide/RNase staining based flow cytometry; type: functional
Calf thymus DNA [31] = test: Binding affinity to calf thymus DNA assessed as dissociation constant by scatchard plot analysis; set-up: species or system Bos taurus
[32] = Drug uptake in mouse NIH3T3 cells assessed as compound localization in nucleus at 1 uM measured after 15 mins by laser scanning microscope; type: ADME, subcellular; conditions: nih3t3, 0.25 h
K562 [33] = test: Induction of apoptosis in human K562 cells assessed as viable cells at 3.2 uM measured after 24 hrs by Annexin V-APC/PI staining based flow cytometry assay (reference value: 85.9%); type: functional; conditions: read-out: Activity
K562 [34] = test: Induction of apoptosis in human K562 cells assessed as early apoptotic cells at 1.6 uM measured after 48 hrs by Annexin V-APC/PI staining based flow cytometry assay (reference value: 3.4%); type: functional
K562 [35] = test: Induction of apoptosis in human K562 cells assessed as early apoptotic cells at 1.6 uM measured after 24 hrs by Annexin V-APC/PI staining based flow cytometry assay (reference value: 3.4%); type: functional
[36] = Toxicity in ip dosed BDF1 mouse xenografted with mouse P388 cells administered qd for 5 days; type: organism-based; conditions: in vivo, time 5 day
K562 [37] = test: Induction of apoptosis in human K562 cells assessed as late apoptotic cells at 1.6 uM measured after 48 hrs by Annexin V-APC/PI staining based flow cytometry assay (reference value: […]); type: functional
K562 [38] = test: Induction of apoptosis in human K562 cells assessed as late apoptotic cells at 1.6 uM measured after 24 hrs by Annexin V-APC/PI staining based flow cytometry assay (reference value: […]); type: functional
K562 [39] = test: Induction of oxidative stress in human K562 cells assessed as increase in intracellular ROS generation at 1.6 uM measured after 40 mins by Deep Red dye based flow cytometry method; type: functional, cell-based
K562 [40] = test: Induction of apoptosis in human K562 cells assessed as viable cells at 1.6 uM measured after 48 hrs by Annexin V-APC/PI staining based flow cytometry assay (reference value: 85.9%); type: functional; conditions: read-out: Activity
K562 [41] = test: Induction of apoptosis in human K562 cells assessed as viable cells at 1.6 uM measured after 24 hrs by Annexin V-APC/PI staining based flow cytometry assay (reference value: 85.9%); type: functional; conditions: read-out: Activity
K562 [42] = test: Induction of apoptosis in human K562 cells assessed as necrotic cells at 1.6 uM measured after 48 hrs by Annexin V-APC/PI staining based flow cytometry assay (reference value: 3.9%); type: functional
K562 [43] = test: Induction of apoptosis in human K562 cells assessed as necrotic cells at 1.6 uM measured after 24 hrs by Annexin V-APC/PI staining based flow cytometry assay (reference value: 3.9%); type: functional

Row | Compound | selectivity ratio [1] | IC50 (HCT-116 [2]) [µM] | Ratio IC50 [4] | Drug uptake [5] | Ratio (Calf thymus DNA [7]) | IC50 (K562 [9]) [µM] | selectivity ratio [11] | selectivity ratio [15] | Kb (Calf thymus DNA [17]) | inhibition [18] | IC50 (CAPAN-1) [µM] | Activity (Calf thymus DNA [19]) | IC50 (HCT-116 [20]) [µM] | IC50 [21] [µM] | IC50 (NCI-H460) [µM] | Activity (K562 [22]) | IC50 (TERT-RPE1) [µM] | Activity (Calf thymus DNA [25]) | selectivity ratio [26] | Ratio IC50 [27] | further results
1 | N[C@H]1CCN(C(=O)c2csc3c(O)c4c(c(O)c23)C(=O)c2ccccc2C4=O)C1 | 2 | 1.8 | 2.7 | Active | 2 | 1.6 | 2 | 2 | 2 10^5/M | Active | 2.1 | Active | 2.2 | 4.3 | 2.1 | Active | 12.9 | Active | 2 | 2 | viability at 3.2 µM (K562 [3]): 54.1%; Activity (K562 [6]): 35.1%; Drug uptake [8]: Active; Activity (K562 [10]): 6.7%; Activity (K562 [12]): 0.9%; Activity (K562 [13]): Active; Activity (K562 [14]): 21.3%; Activity (K562 [16]): 9.9%; Drug uptake [23]: Active; Activity (K562 [24]): 0.8%; Activity (K562 [28]): Active; IC50 (HL-60): 5.5 µM; Drug uptake [29]: Active; Activity (K562 [30]): Active; Kd (Calf thymus DNA [31]): 5 µM; Drug uptake [32]: Active; viability at 3.2 µM (K562 [33]): 71.2%
2 | N[C@H]1CCN(C(=O)c2coc3c(O)c4c(c(O)c23)C(=O)c2ccccc2C4=O)C1 | 9 | 1.2 | 1.5 | Active | 2 | 0.9 | 9 | 9 | 0.9 10^5/M | Active | 0.3 | Active | 1.3 | 1.4 | 0.4 | Active | 11.1 | Active | 9 | 9 | Activity (K562 [34]): 0.5%; Activity (K562 [35]): 1.3%; LD50 at 120 h [36]: 52 mg/kg; Activity (K562 [37]): 9.1%; Activity (K562 [38]): 8.1%; Activity (K562 [39]): Active; viability at 1.6 µM (K562 [40]): 51.9%; viability at 1.6 µM (K562 [41]): 70%; IC50 (HL-60): 0.5 µM; Drug uptake [29]: Active; Activity (K562 [42]): 38.6%; Activity (K562 [43]): 20.6%; Kd (Calf thymus DNA [31]): 11 µM
